Measurements as given in BindingDB's records for doi:10.1021/acs.biochem.6b00412 (Duquesne University, 2016).

Each molecule was assayed against T1, Trifunctional purine biosynthetic protein adenosine-3 (Homo sapiens, UniProt P22102) (assay: GAR Transformylase Inhibition Assay). Conditions: pH 7.5.
T1 sequence (P22102 whole entry): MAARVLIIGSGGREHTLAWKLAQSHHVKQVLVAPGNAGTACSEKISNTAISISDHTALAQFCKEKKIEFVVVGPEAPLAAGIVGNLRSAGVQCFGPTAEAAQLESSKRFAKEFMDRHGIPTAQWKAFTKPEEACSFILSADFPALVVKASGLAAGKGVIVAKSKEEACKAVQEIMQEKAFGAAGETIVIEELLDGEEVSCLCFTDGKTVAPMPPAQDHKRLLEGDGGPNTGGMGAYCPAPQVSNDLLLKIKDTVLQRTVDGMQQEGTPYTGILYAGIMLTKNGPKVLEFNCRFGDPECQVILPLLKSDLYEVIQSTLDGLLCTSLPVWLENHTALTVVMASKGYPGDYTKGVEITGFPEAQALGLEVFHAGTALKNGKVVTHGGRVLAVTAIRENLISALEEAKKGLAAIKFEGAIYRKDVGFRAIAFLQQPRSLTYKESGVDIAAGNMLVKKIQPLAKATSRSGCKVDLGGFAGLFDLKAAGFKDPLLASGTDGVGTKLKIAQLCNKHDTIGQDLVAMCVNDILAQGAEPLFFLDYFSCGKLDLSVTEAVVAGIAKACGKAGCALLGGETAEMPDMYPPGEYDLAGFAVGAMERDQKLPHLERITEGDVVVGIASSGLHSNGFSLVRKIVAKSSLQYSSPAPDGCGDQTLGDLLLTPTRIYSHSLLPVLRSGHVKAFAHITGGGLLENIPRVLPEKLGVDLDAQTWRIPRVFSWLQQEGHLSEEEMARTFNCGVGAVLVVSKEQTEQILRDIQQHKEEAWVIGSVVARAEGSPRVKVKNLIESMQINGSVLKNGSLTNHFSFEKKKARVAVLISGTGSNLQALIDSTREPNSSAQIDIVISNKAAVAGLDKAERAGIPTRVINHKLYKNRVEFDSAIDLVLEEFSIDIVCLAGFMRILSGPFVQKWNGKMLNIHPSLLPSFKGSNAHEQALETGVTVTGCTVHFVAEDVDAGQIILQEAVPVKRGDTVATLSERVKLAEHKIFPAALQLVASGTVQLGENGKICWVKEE
Description: To initiate the assay, 150 μL of 20 nM His-GARFTase or buffer was added, and the plate was shaken for 5 s. […] For each antifolate, triplicate assays were performed at 20 different drug concentrations.

Nc1nc2[nH]c(CCCCCCCC(=O)N[C@@H](CCC(=O)O)C(=O)O)cc2c(=O)[nH]1 and Nc1nc2[nH]c(CCCCCCC(=O)N[C@H](CCC(=O)O)C(=O)O)cc2c(=O)[nH]1 [AGF145] are within 1.5-fold of each other in Ki: 99 nM for the first, 67 nM for the second.

Going from Nc1nc2[nH]c(CCCCc3ccc(C(=O)N[C@@H](CCC(=O)O)C(O)O)cc3)cc2c(=O)[nH]1 [AGF23] to Nc1nc2sc(CCCCc3ccc(C(=O)N[C@@H](CCC(=O)O)C(O)O)cc3)cc2c(=O)[nH]1 [AGF50], the Ki rises from 17 nM to 1070 nM (63-fold). The first binds more tightly here.

For Nc1nc2[nH]c(CCCCc3ccc(C(=O)N[C@@H](CCC(=O)O)C(=O)O)s3)cc2c(=O)[nH]1 [(S)-2-({5-[4-(2-Amino-4-oxo-4,7-dihydro-3H-pyrrolo[2,3-d]-pyrimidin-6-yl)-butyl]-thiophene-2-carbonyl}-amino)-pentanedioicAcid], the Ki was 22 nM.
